According to article PMC11380953, “Multivalent, calcium-independent binding of surfactant protein A and D to sulfated glycosaminoglycans of the alveolar epithelial glycocalyx” (American Journal of Physiology - Lung Cellular and …, 2024):
Like-named read-outs stand apart in the source and are kept apart here.

Columns and labels:
[1] = molecular target: T1, recSP-A1 (human recombinant SP-A1) (Homo sapiens, UniProt Q8IWL2); assay: Microscale thermophoresis (MST) binding to recSP-A1; conditions: for Kd: recSP-A1, GAGs from Fig. 2, read-out: Kd (±KD Confidence); for Response Amplitude: recSP-A1, MST, GAGs from Fig. 2
T1 construct: purchased Aviva Systems Biology OPCD07130; host or cells: prokaryotic expression
T1 sequence (Q8IWL2 21-248): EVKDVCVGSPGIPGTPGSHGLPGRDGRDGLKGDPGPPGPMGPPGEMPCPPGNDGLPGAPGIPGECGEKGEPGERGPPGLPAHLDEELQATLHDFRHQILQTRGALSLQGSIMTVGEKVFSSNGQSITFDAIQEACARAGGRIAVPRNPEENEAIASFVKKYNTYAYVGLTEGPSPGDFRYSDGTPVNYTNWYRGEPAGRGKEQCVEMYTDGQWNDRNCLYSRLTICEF
Method: (§1) Human-isolated and recombinant proteins were labeled using the Monolith Protein Labeling Kit RED-NHS according to the manufacturer’s instructions. This kit reagent reacts with lysine residues present in the sequence of the protein, as the dye carries a reactive NHS-ester group. Briefly, as all the proteins were in a Tris buffer solution, the buffer solution was exchanged to a HEPES-based buffer with the A-Column provided in the kit. Then, 10 µM solution of protein was incubated with a threefold excess of dye in 100 µL for 30 min at room temperature protected from light. The labeled protein was separated from the free dye using the B-Column provided in the kit. The concentration of the labeled protein {c(M) = [A205 − (A650 × 0.19)]/[31 × MWprotein]) and the degree of labeling [DOL = A650/(195.000 M^−1cm^−1 × c(M)] were calculated according to the manufacturer’s instruction, measuring absorption at 205 nm (for the protein) and 650 nm (for the dye).
(§2) Thermophoresis is the phenomenon of movement of particles along a temperature gradient. Solvated molecules move from higher to lower temperature. This movement or depletion of molecules from the heat is quantified by the Soret coefficient ST: Chot/Ccold = exp (−STΔT). The depletion of molecules depends on the interface between molecule and solvent. Therefore, thermophoresis monitors changes in size, charge, and solvation entropy of molecules. In this regard, the thermophoresis or movement of a protein is different from a protein-ligand complex ([35]). Microscale or miniaturized thermophoresis allows to monitor molecular interaction in only a few microliters. For this method, the fluorescently labeled protein is mixed with a decreasing concentration of a ligand in 16 glass capillaries. The initial fluorescence is measured (Fcold), then an infrared (IR) laser beam is switched on and focused on the center of the first capillary, where the temperature gradient is created from the center to the walls of the capillary. At the same time, a dichroic mirror allows fluorescence from the labeled protein to be monitored (Fhot). The rate of fluorescence change is related to the amount of protein-ligand complex form, which depends on the ligand concentration, due to changes in size, charge, or hydration shell of the protein-ligand complex. The dissociation constant KD is calculated from the binding curve derived by plotting the normalized fluorescence (FNorm) at a given time after the start of the thermophoresis against the respective ligand concentration ([33], [34], [36]).
(§3) Samples were measured in a Monolith NT.115, using Premium Capillaries (MO-K025) and Monolith Protein labeling kit RED-NHS (MO-L011) all from NanoTemper Technologies (Munich, Germany). Solutions of a 3X concentrated MST buffer (15 mM Tris, 300 mM NaCl, 0.3% Tween 20, 15 mM CaCl2, pH 7.4), sugars (270 mM) or GAG (30 µM) solution, and protein solution (27 nM) were prepared separately. When a different concentration was used, a threefold concentration of the solution was prepared. Afterward, sugars and GAG solutions were diluted 1:2 with water in a series of 16 steps. For the measurement, 3 µL of each prepared component (3 µL MST buffer, 3 µL GAG solution, and 3 µL labeled protein) was mixed, centrifuged shortly to eliminate precipitates, and loaded into a glass capillary. The final concentrations of the sugars were thus between 90 –and 0.00275 mM or GAGs 10 and 0.000305 µM for GAGs, respectively. The 16 capillaries were loaded in the Monolith NT.115 and measurements were performed with a 40% LED power and medium MST power at 25°C.
(§4) Every set of 16 capillaries was prepared in 3–6 replicates (technical replicates) and measured. The replicate measures of every capillary were plotted against concentration and outliers were excluded, using the MO Affinity Analysis 3 v01 software (NanoTemper Technologies, Munich, Germany). […]

[2] = molecular target: T2, rhSP-D (human recombinant SP-D) (Homo sapiens, UniProt P35247); assay: Microscale thermophoresis (MST) binding to rhSP-D; parameters: Response Amplitude: unit not given here
T2 construct: host or cells: CHO cells
T2 sequence (P35247 21-375): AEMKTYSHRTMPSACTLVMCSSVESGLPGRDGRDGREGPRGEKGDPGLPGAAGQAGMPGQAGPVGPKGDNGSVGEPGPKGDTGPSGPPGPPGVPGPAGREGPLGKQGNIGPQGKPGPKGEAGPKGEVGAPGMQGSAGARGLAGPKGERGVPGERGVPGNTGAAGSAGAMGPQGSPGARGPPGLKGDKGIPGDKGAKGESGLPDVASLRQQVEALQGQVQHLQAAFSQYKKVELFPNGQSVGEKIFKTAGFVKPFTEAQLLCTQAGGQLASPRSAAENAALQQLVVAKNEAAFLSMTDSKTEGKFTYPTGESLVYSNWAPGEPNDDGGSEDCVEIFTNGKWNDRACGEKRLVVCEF
Method: as §1, §2, §3, §4

[3] = molecular target: T3, hSP-D (human SP-D, isolated from BAL of PAP patient) (Homo sapiens, UniProt P35247); assay: Microscale thermophoresis (MST) binding to hSP-D; conditions: for Kd: GAGs from Fig. 2, read-out: Kd (±KD Confidence); for Response Amplitude: MST, GAGs from Fig. 2
T3 construct: hSP-D; 0.6 µM; Human PAP patient, BAL isolated; from tissue; host or cells: bronchoalveolar lavage fluid of a patient with pulmonary alveolar proteinosis
T3 sequence (P35247 21-375): T2 sequence (P35247 21-375)
Method: as §1, §2, §3, §4

[4] = GAGs from Fig. 2, read-out: Kd (±KD Confidence)

Substance | Kd [1] [µM] | Response Amplitude [1] | Response Amplitude ([2]; 0 mM Ca^2+) | Kd ([2]; 0 mM Ca^2+, read-out: KD) [µM] | Response Amplitude ([2]; 2.5 mM Ca^2+) | Kd ([2]; 2.5 mM Ca^2+, read-out: KD) [µM] | Response Amplitude ([2]; 5 mM Ca^2+) | Kd ([2]; 5 mM Ca^2+, read-out: KD) [µM] | Response Amplitude ([2]; 10 mM Ca^2+) | Kd ([2]; 10 mM Ca^2+, read-out: KD) [µM] | Kd [2, 4] [µM] | Response Amplitude ([2]; MST, GAGs from Fig. 2) | Kd [3] [µM] | Response Amplitude [3]
chondroitin sulfate sodium salt [CS] | 0.0801 | 17.02 | 16.10 | 17.6 | 10.05 | 0.152 | 10.83 | 0.0971 | 21.36 | 0.131 | 0.000808 | 23.54 | 5.82 | 3.74
heparan sulfate sodium [HS] | 0.269 | 15.51 | 12.04 | 0.735 | 33.47 | 0.00744 | 6.29 | 0.431 | 15.22 | 0.000688 | 0.287 | 3.55 | 5.64 | 3.03
hyaluronic acid sodium salt [HA] | 1.01 | 17.13 | – | – | – | – | 5.33 | 0.0419 | 3.25 | 0.0311 | 0.0221 | 9.67 | 2.19 | 3.45
